Values quoted from earlier work, collected in Sander's compilation of Henry's law constants (doi:10.1039/p29940001777).

Assay: Henry solubility constant Hcp at 298.15 K (mol/(m3 Pa))
Conditions: reference: Abraham et al. (1994a); cited value

SMILES	Henry solubility constant Hcp
COc1cccc(N)c1 [3-methoxy-benzenamine]	90
c1ccc2ncccc2c1 [benzo[b]pyridine]	6.4
CC(=O)c1ccc(C)cc1 [4'-methylacetophenone]	1.1
CCOCCO [2-ethoxyethanol]	33
Nc1ccc(Cl)cc1 [1-amino-4-chlorobenzene]	8.6
N#Cc1ccccc1 [benzenenitrile]	0.5
Cc1cccc(O)c1C [1-hydroxy-2,3-dimethylbenzene]	13
Cc1ccccc1N [2-methylbenzenamine]	4.6
O=Cc1ccncc1 [4-formylpyridine]	56
Oc1ccccc1F [2-hydroxyfluorobenzene]	3.1
Cc1cccc(C)c1N [2,6-dimethylbenzenamine]	2.7
CC(=O)c1ccncc1 [4-acetylpyridine]	160
OCCCc1ccccc1 [3-phenyl-1-propanol]	48
Nc1ccccc1[N+](=O)[O-] [2-nitrobenzenamine]	100
CCOC(=O)c1ccccc1 [ethyl benzoate]	0.19
Nc1ccc2ccccc2c1 [2-naphthylamine]	120
NC(=O)c1ccccc1 [benzamide]	47000
Cc1cc(C)cc(O)c1 [1-hydroxy-3,5-dimethylbenzene]	16
CC(=O)c1cccnc1 [3-acetylpyridine]	460
Cc1cc(O)ccc1Cl [4-chloro-3-methylphenol]	39
COC(=O)c1ccccc1 [methyl benzoate]	0.31
Cc1ccc(C)c(O)c1 [1-hydroxy-2,5-dimethylbenzene]	8.8

SMILES	Henry solubility constant Hcp
Nc1ccc([N+](=O)[O-])cc1 [4-nitrobenzenamine]	14000
CN1CCCCC1 [N-methylpiperidine]	0.24
Nc1cccc2ccccc12 [1-naphthylamine]	88
CNc1ccccc1 [(methylamino)-benzene]	1.1
OCCc1ccccc1 [2-phenylethanol]	39
Cc1ccc(O)c(C)c1 [1-hydroxy-2,4-dimethylbenzene]	10
O=Cc1cccnc1 [3-formylpyridine]	65
CCc1cccc(O)c1 [1-hydroxy-3-ethylbenzene]	16
COc1ccccc1O [1-hydroxy-2-methoxybenzene]	5
CCc1ccc(O)cc1 [1-hydroxy-4-ethylbenzene]	13
COc1cccc(O)c1 [1-hydroxy-3-methoxybenzene]	170
CCCc1ccc(O)cc1 [1-hydroxy-4-propylbenzene]	8.6
CCOP(=O)(OCC)OCC [triethylphosphate]	140
O=[N+]([O-])c1ccccc1O [2-nitrophenol]	0.92
N#Cc1cccnc1 [3-cyanopyridine]	36
Nc1cccc([N+](=O)[O-])c1 [3-nitrobenzenamine]	1200
Oc1ccccc1I [2-iodophenol]	14
OCc1ccccc1 [(hydroxymethyl)-benzene]	29
Oc1ccccc1Cl [2-hydroxychlorobenzene]	0.88
Nc1ccccc1Cl [1-amino-2-chlorobenzene]	1.6
Nc1cccc(Cl)c1 [1-amino-3-chlorobenzene]	7.5
N#Cc1ccncc1 [4-cyanopyridine]	11
